Measurements from patent publication US20080014585A1, “SYNERGISTIC ACTIVATION OF REGULATORY ELEMENTS BY REL PROTEINS AND A STEROID RECEPTOR” (N.V. Organon, priority 2000, published 2008).
“Also recorded” adds a separate entry of the source.

How the values were obtained:
human ERα = molecular target: T1, human ERα (Homo sapiens, UniProt P03372); assay: 5-HT1A receptor promoter (-901luc) luciferase reporter, COS-1 cells cotransfected with NF-κB (p50, p65) and ERα; format: cell-based
T1 construct: expressed in transfected cells; host or cells: COS-1 (monkey)
T1 sequence (P03372 1-595): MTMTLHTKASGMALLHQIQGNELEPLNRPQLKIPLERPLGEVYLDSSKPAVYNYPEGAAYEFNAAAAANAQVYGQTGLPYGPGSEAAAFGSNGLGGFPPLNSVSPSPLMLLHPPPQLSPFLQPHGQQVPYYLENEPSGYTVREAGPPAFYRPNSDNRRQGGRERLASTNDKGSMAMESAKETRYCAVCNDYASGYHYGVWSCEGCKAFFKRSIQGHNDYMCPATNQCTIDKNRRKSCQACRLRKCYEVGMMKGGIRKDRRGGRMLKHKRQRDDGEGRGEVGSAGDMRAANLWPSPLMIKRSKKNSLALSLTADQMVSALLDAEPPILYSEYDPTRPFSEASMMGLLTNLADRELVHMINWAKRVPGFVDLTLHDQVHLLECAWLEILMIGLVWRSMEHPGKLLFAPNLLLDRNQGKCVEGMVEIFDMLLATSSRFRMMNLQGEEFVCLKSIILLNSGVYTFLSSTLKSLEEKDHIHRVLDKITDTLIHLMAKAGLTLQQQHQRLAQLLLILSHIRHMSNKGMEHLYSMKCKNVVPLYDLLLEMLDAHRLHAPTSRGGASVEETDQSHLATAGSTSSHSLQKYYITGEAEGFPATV
Excerpt: Depicted is the induction of luciferase activity evoked by NF-κB over cells transfected with empty expression vector. Bars represent the mean of at least three independent experiments ±S.D. (B) COS-1 cells were transiently transfected with 4×NF-κ B(HIV)tkluc in combination with empty expression vector or expression vectors encoding the p50 and p65 subunits of NF-κB and expression vectors encoding ERα or ERβ. Cells were either untreated (white bars) or treated with 10^−8 M E2 (black bars) for 24 h. Depicted is the induction of luciferase activity evoked by NF-κB over cells transfected with empty expression vector. Bars represent the mean of at least three independent experiments ±S.D.
(A) COS-1 cells were transiently transfected with the −901luc reporter construct together with empty expression vector or expression vectors encoding the p50 and p65 subunits of NF-κB in combination with expression vectors encoding ERα and treated with E2, OH-T or ICI for 24 h as indicated. Depicted is the induction of luciferase activity evoked by NF-κB over cells transfected with empty expression vector. Bars represent the mean of at least three independent experiments ±S.D. FIG. 4. […] Depicted is the induction of luciferase activity evoked by the NF-κB subunits over cells transfected with empty expression vector. Bars represent the mean of at least three independent experiments ±S.D.
Cell Culture. […]

classical ERE = details: transactivation experiments, reference 22; cited from earlier work
ERα = ERα (Homo sapiens, UniProt P03372); details: cited from earlier work

Question: Which “enhancement of 5-HT1A receptor promoter activity by ERα and NF-κB” value (human ERα) does the source give for 4-hydroxytamoxifen here?
Answer: further induced; also recorded: as potent as E2

Question: And the “transcription of genes regulated by a classical ERE” value (classical ERE)?
Answer: inhibited transcription

Question: What about the “transcription of genes under the control of an AP-1 element with ERα” value (ERα) of the same substance?
Answer: activated
